Test results published in US20250115620A1, “BRIDGED TRICYCLIC CARBAMOYLPYRIDONE COMPOUNDS AND USES THEREOF” (Gilead Sciences, Inc., priority 2022, published 2025).
Read-outs that look alike come from different tables or passages of the source.

Columns and labels:
pLAI reporter virus = assay: microbe, parasite or virus in culture; assay type: cell-based, HIV; details: Human immunodeficiency virus 1, MT4, 72 h
HIV-1 (IIIB) = assay: microbe, parasite or virus in culture; assay type: cell-based; details: Human immunodeficiency virus 1, IIIB, MT4, 120 h, read-out: MT4 EC50
in vitro = details: human; for CC50 at 5 days: uninfected MT-4 cells
Method: Compounds were serially diluted (1:3) in DMSO on 384-well polypropylene plates and further diluted 200-fold into complete RPMI media (10% FBS, 1% P/S) using the Biotek Micro Flow and Labcyte ECHO acoustic dispenser. […] Infected and uninfected MT-4 cells were further diluted in complete RPMI media and added to each plate using a Micro Flow dispenser. After 5 days incubation in a humidified and temperature controlled incubator (37° C.), Cell Titer Glo (Promega) was added to the assay plates and chemiluminescence read using an Envision plate-reader.
Assays were performed as above except uninfected MT-4 cells were added to each well containing test compound. In addition, 10 μM puromycin was added to the last column of each assay plate to assess a base level of cytotoxicity.

[1] = HIV-1 (IIIB) in MT-4 cells, 5 days incubation, Cell Titer Glo

Structure (SMILES)	EC50 (pLAI reporter virus; read-out: RLUC 50% HS EC50) [nM]	EC50 (pLAI reporter virus; read-out: RLUC CCM EC50) [nM]	EC50 (HIV-1 (IIIB); [1]) [nM]	CC50 at 5 days (in vitro) [nM]	EC50 (HIV-1 (IIIB)) [nM]	CC50 (in vitro) [nM]
CC1=NO[C@]2(C1)C[C@H](F)[C@H](C)N1C[C@H]2n2cc(C(=O)NCc3ccc(F)cc3F)c(=O)c(O)c2C1=O [Example 5, (3′S,4′S,5R,7′R)—N-(2,4-difluorobenzyl)-4′-fluoro-12′-hydroxy-3,3′-dimethyl-1′,11′-dioxo-1′,4′,5′,11′-tetrahydro-3′H,4H,7′H-spiro[isoxazole-5,6′-[2,7]methanopyrido[1,2-a][1,4]diazonine]-10′-carboxamide]	27.4	0.4	1.6	25800	–	–
CC1=NO[C@@]2(CC[C@H](C)N3C[C@H]2n2cc(C(=O)NCc4ccc(F)c(Cl)c4F)c(=O)c(O)c2C3=O)C1 [Example 6, (3′S,5S,7′R)—N-(3-chloro-2,4-difluorobenzyl)-12′-hydroxy-3,3′-dimethyl-1′,11′-dioxo-1′,4′,5′,11′-tetrahydro-3′H,4H,7′H-spiro[isoxazole-5,6′-[2,7]methanopyrido[1,2-a][1,4]diazonine]-10′-carboxamide]	543	0.2	0.5	9280	–	–
CC(C)C1=NO[C@@]2(CC[C@H](C)N3C[C@H]2n2cc(C(=O)NCc4ccc(F)cc4F)c(=O)c(O)c2C3=O)C1 [Example 7, (3′S,5S,7′R)—N-(2,4-difluorobenzyl)-12′-hydroxy-3-isopropyl-3′-methyl-1′,11′-dioxo-1′,4′,5′,11′-tetrahydro-3′H,4H,7′H-spiro[isoxazole-5,6′-[2,7]methanopyrido[1,2-a][1,4]diazonine]-10′-carboxamide]	1.6	0.5	1.9	38200	–	–
CCC1=NO[C@@]2(CC[C@H](C)N3C[C@H]2n2cc(C(=O)NCc4ccc(F)cc4F)c(=O)c(O)c2C3=O)C1 [Example 8, (3′S,5S,7′R)—N-(2,4-difluorobenzyl)-3-ethyl-12′-hydroxy-3′-methyl-1′,11′-dioxo-1′,4′,5′,11′-tetrahydro-3′H,4H,7′H-spiro[isoxazole-5,6′-[2,7]methanopyrido[1,2-a][1,4]diazonine]-10′-carboxamide]	75.2	0.2	0.8	14800	–	–
C[C@H]1CC[C@]2(CC(CC(F)(F)F)=NO2)[C@H]2CN1C(=O)c1c(O)c(=O)c(C(=O)NCc3c(F)cc(F)cc3F)cn12 [Example 9]	146	0.5	0.8	10200	–	–
C[C@H]1CC[C@]2(CC(CCCCCl)=NO2)[C@H]2CN1C(=O)c1c(O)c(=O)c(C(=O)NCc3c(F)cc(F)cc3F)cn12 [Example 10, (3′S,5S,7′R)-3-(4-chlorobutyl)-12′-hydroxy-3′-methyl-1′,11′-dioxo-N-(2,4,6-trifluorobenzyl)-1′,4′,5′,11′-tetrahydro-3′H,4H,7′H-spiro[isoxazole-5,6′-[2,7]methanopyrido[1,2-a][1,4]diazonine]-10′-carboxamide]	5.5	1	1.7	5860	–	–
C[C@H]1CC[C@]2(CC(c3ccccc3)=NO2)[C@H]2CN1C(=O)c1c(O)c(=O)c(C(=O)NCc3ccc(F)cc3F)cn12 [Example 11, (3′S,5S,7′R)—N-(2,4-difluorobenzyl)-12′-hydroxy-3′-methyl-1′,11′-dioxo-3-phenyl-1′,4′,5′,11′-tetrahydro-3′H,4H,7′H-spiro[isoxazole-5,6′-[2,7]methanopyrido[1,2-a][1,4]diazonine]-10′-carboxamide]	15.4	1.7	1.8	8730	–	–
C[C@H]1CC[C@]2(CC(Cc3ccccc3)=NO2)[C@H]2CN1C(=O)c1c(O)c(=O)c(C(=O)NCc3ccc(F)cc3F)cn12 [Example 12, (3′S,5S,7′R)-3-benzyl-N-(2,4-difluorobenzyl)-12′-hydroxy-3′-methyl-1′,11′-dioxo-1′,4′,5′,11′-tetrahydro-3′H,4H,7′H-spiro[isoxazole-5,6′-[2,7]methanopyrido[1,2-a][1,4]diazonine]-10′-carboxamide]	35.6	1.1	–	–	1.7	23500
C[C@H]1CC[C@]2(CC(c3ccccn3)=NO2)[C@H]2CN1C(=O)c1c(O)c(=O)c(C(=O)NCc3ccc(F)cc3F)cn12 [Example 13, (3′S,5S,7′R)—N-(2,4-difluorobenzyl)-12′-hydroxy-3′-methyl-1′,11′-dioxo-3-(pyridin-2-yl)-1′,4′,5′,11′-tetrahydro-3′H,4H,7′H-spiro[isoxazole-5,6′-[2,7]methanopyrido[1,2-a][1,4]diazonine]-10′-carboxamide]	2.1	1.5	4.3	≥ 50000	–	–
C[C@H]1CC[C@]2(CC(c3cccnc3)=NO2)[C@H]2CN1C(=O)c1c(O)c(=O)c(C(=O)NCc3ccc(F)cc3F)cn12 [Example 14, (3′S,5S,7′R)—N-(2,4-difluorobenzyl)-12′-hydroxy-3′-methyl-1′,11′-dioxo-3-(pyridin-3-yl)-1′,4′,5′,11′-tetrahydro-3′H,4H,7′H-spiro[isoxazole-5,6′-[2,7]methanopyrido[1,2-a][1,4]diazonine]-10′-carboxamide]	4.1	0.8	1.6	16700	–	–
C[C@H]1CC[C@]2(CC(C3CC3)=NO2)[C@H]2CN1C(=O)c1c(O)c(=O)c(C(=O)NCc3ccc(F)cc3F)cn12 [Example 15, (3′S,5S,7′R)-3-cyclopropyl-N-(2,4-difluorobenzyl)-12′-hydroxy-3′-methyl-1′,11′-dioxo-1′,4′,5′,11′-tetrahydro-3′H,4H,7′H-spiro[isoxazole-5,6′-[2,7]methanopyrido[1,2-a][1,4]diazonine]-10′-carboxamide]	3.8	0.8	2.4	≥ 50000	–	–
C[C@H]1CC[C@]2(CC(CO)=NO2)[C@H]2CN1C(=O)c1c(O)c(=O)c(C(=O)NCc3ccc(F)cc3F)cn12 [Example 16, (3′S,5S,7′R)—N-(2,4-difluorobenzyl)-12′-hydroxy-3-(hydroxymethyl)-3′-methyl-1′,11′-dioxo-1′,4′,5′,11′-tetrahydro-3′H,4H,7′H-spiro[isoxazole-5,6′-[2,7]methanopyrido[1,2-a][1,4]diazonine]-10′-carboxamide]	52.9	2.8	2.6	49400	–	–
C[C@H]1CC[C@]2(CC(CF)=NO2)[C@H]2CN1C(=O)c1c(O)c(=O)c(C(=O)NCc3ccc(F)cc3F)cn12 [Example 17, (3′S,5S,7′R)—N-(2,4-difluorobenzyl)-3-(fluoromethyl)-12′-hydroxy-3′-methyl-1′,11′-dioxo-1′,4′,5′,11′-tetrahydro-3′H,4H,7′H-spiro[isoxazole-5,6′-[2,7]methanopyrido[1,2-a][1,4]diazonine]-10′-carboxamide]	226	0.2	0.6	20500	–	–
C[C@H]1CC[C@@]2(CC(CF)=NO2)[C@H]2CN1C(=O)c1c(O)c(=O)c(C(=O)NCc3ccc(F)cc3F)cn12 [Example 18, (3′S,5R,7′R)—N-(2,4-difluorobenzyl)-3-(fluoromethyl)-12′-hydroxy-3′-methyl-1′,11′-dioxo-1′,4′,5′,11′-tetrahydro-3′H,4H,7′H-spiro[isoxazole-5,6′-[2,7]methanopyrido[1,2-a][1,4]diazonine]-10′-carboxamide]	2.4	1.6	4.5	≥ 50000	–	–
C[C@H]1CC[C@]2(CC(CF)=NO2)[C@H]2CN1C(=O)c1c(O)c(=O)c(C(=O)NCc3c(F)cc(F)cc3F)cn12 [Example 19, (3′S,5S,7′R)-3-(fluoromethyl)-12′-hydroxy-3′-methyl-1′,11′-dioxo-N-(2,4,6-trifluorobenzyl)-1′,4′,5′,11′-tetrahydro-3′H,4H,7′H-spiro[isoxazole-5,6′-[2,7]methanopyrido[1,2-a][1,4]diazonine]-10′-carboxamide]	163	0.2	–	22900	1	–
C[C@H]1CC[C@]2(CC(C(F)F)=NO2)[C@H]2CN1C(=O)c1c(O)c(=O)c(C(=O)NCc3c(F)cc(F)cc3F)cn12 [Example 20, (3′S,5S,7′R)-3-(difluoromethyl)-12′-hydroxy-3′-methyl-1′,11′-dioxo-N-(2,4,6-trifluorobenzyl)-1′,4′,5′,11′-tetrahydro-3′H,4H,7′H-spiro[isoxazole-5,6′-[2,7]methanopyrido[1,2-a][1,4]diazonine]-10′-carboxamide]	168	0.3	1.2	12400	–	–
C[C@H]1CC[C@]2(CC(C(F)F)=NO2)[C@H]2CN1C(=O)c1c(O)c(=O)c(C(=O)NCc3ccc(F)cc3F)cn12 [Example 21, (3′S,5S,7′R)—N-(2,4-difluorobenzyl)-3-(difluoromethyl)-12′-hydroxy-3′-methyl-1′,11′-dioxo-1′,4′,5′,11′-tetrahydro-3′H,4H,7′H-spiro[isoxazole-5,6′-[2,7]methanopyrido[1,2-a][1,4]diazonine]-10′-carboxamide]	72.7	0.3	1.4	29300	–	–
CC1=NO[C@]2(CC[C@H](C)N3C[C@H]2n2cc(C(=O)NCc4ccc(F)cc4F)c(=O)c(O)c2C3=O)C1C (stereo partly drawn) [Example 23, (3′S,5R,7′R)—N-(2,4-difluorobenzyl)-12′-hydroxy-3,3′,4-trimethyl-1′,11′-dioxo-1′,4′,5′,11′-tetrahydro-3′H,4H,7′H-spiro[isoxazole-5,6′-[2,7]methanopyrido[1,2-a][1,4]diazonine]-10′-carboxamide]	0.9	0.5	1.2	≥ 50000	–	–
